These are literature values, as cited in US20060057620A1, “Treatment of HIV infection” (priority 2004, published 2006).

This data set has as its system circulating T-cells. Conditions: FIG. 1.

Bounds are passed on as bounds.

With alemtuzumab, the “time to full recovery of T-cells” value (after a single dose) is no less than 3 months. Also, the “killing of circulating T-cells (T-cell depletion)” value (single dose) is listed as “able to kill all circulating T-cells”.
